In patent US10035792B2, “Resorcinol derivative as HSP90 inhibitor” (priority 2015, dated 2018):

Experiments:
HSP90α = HSP90α (Homo sapiens (Human), UniProt P07900); test: Fluorescence polarization (FP) HSP90-alpha target binding assay; conditions: fluorescence polarization; read-out: Target binding ability HSP90α FP IC50
Excerpt: In the present invention, the method of fluorescence polarization (FP) was used to establish the screening platform for HSP90-alpha inhibitors. The principle based on is to calculate fluorescence polarization values in horizontal and vertical directions by detecting molecular weight changes before and after interaction of fluorescent labeled small molecules with other molecules, in use for correlation analysis. If binding equilibria between the fluorescent labeled small molecule and the macromolecule is established, it moves slowly when excited, and the fluorescence polarization values measured will increase. If the fluorescent labeled small molecule binding to the macromolecule is replaced with other ligands, its rotational or inversional speed in free state will become faster, the emitted light would be depolarized with respect to the exciting light plane, and thus the polarized light value measured will decrease, so as to calculate the polarization value of the sample (the unit of polarization value is mP).
The fluorescent labeled small molecule used in the present invention was VER-00051001 (synthesized by reference to the synthetic method described in JMC, 2008, 51, 196-218). The reaction was carried out in a 384-well black plate, using the reaction hydrophobic protein HFB buffer: 100 mM Tris.Cl pH 7.4, 20 mM KCl, 6 mM MgCl2, 5 μg/mL BSA, 25 nM full-length Hsp90U, 10 nM VER-51001. The volume of the reaction system was […], containing 5 nM GM-BODIPY (geldanamycin), 30 nM HSP90 and the test small molecular compound or DMSO (dimethyl sulfoxide), wherein the DMSO content was 2% o. Additional two group wells were established, wherein the wells only added with HFB buffer were used as blank controls, and the wells further added with 5 nM GM-BODIPY were used as negative controls. The reaction was carried out at 4° C. for 12-16 hours. The mP value was measured by Biotek microplate reader at 485 nm of excitation wavelength and 535 nm of emission wavelength. The inhibition rate was calculated using the following equation: (Compound-free mP−Compound mP)/(Compound-free mP−negative control mP)×100%

[1] = tested on: human lung cancer cell line A549; test: Tumor cell growth inhibition, SRB staining, A549; assay type: cell-based; conditions: A549, 72 h
Method: The growth inhibition assay of tumor cells was detected by sulforhodamine B (SRB) staining method. The specific steps were as follows: inoculating human colon cancer cell line HCT116 and human lung cancer cell line A549 (purchased from American Type Culture Collection, ATCC) at the logarithmic growth phase into a 96-well micro culture plate at an appropriate concentration of 4000 cells/well, 100 μL for each well; after culturing overnight, adding with the compound at different concentrations (100, 10, 1, 0.1, 0.01 μM) to react for 72 h, wherein triplicate wells were set up for each concentration, and solvent control wells with the corresponding concentration and zero wells without cells were also set up. After the completion of the reaction, the culture medium was removed from the adherent cells, the later was added with 10% (w/v) trichloroacetic acid (100 μL/well) at 4° C. to fix for 1 h, and then washed five times with distilled water. After drying at room temperature, 100 μL of SRB solution (4 mg/mL, dissolved in 1% glacial acetic acid) was added into each well, followed by incubation and staining for 15 min at room temperature. The uncombined SRB was removed by washing five times with 1% glacial acetic acid. After drying at room temperature, 100 μL of 10 mM Tris solution was added into each well, and the optical density (OD) at 515 nm was measured by a […] microplate reader. The inhibition rate of the drug to tumor cell growth was calculated according to the following equation: Inhibition rate (%)=(OD of control well-OD of drug well)/OD of control well×100%. The experiment was repeated twice.

IC50 (HSP90α) [nM] | EC50 [1] [nM] | Structure (SMILES)
< 20 | < 20 | CNC(=O)c1onc(-c2cc(C(C)C)c(O)cc2O)c1-c1ccc2c(c1)CCN(C)C2 [Example 62, 3-(2,4-dihydroxyl-5-isopropylphenyl)-N-methyl-4-(2-methyl-1,2,3,4-tetrahydroisoquinolin-6-yl)isoxazole-5-carboxamide]
< 20 | < 20 | CC(C)NC(=O)c1onc(-c2cc(C(C)C)c(O)cc2O)c1-c1ccc2c(c1)CCN(C)C2 [Example 63, 3-(2,4-dihydroxyl-5-isopropylphenyl)-N-isopropyl-4-(2-methyl-1,2,3,4-tetrahydroisoquinolin-6-yl)isoxazole-5-carboxamide]
< 20 | < 20 | CC(C)c1cc(-c2noc(C(=O)NCCO)c2-c2ccc3c(c2)CCN(C)C3)c(O)cc1O [Example 64, 3-(2,4-dihydroxyl-5-isopropylphenyl)-N-(2-hydroxylethyl)-4-(2-methyl-1,2,3,4-tetrahydroisoquinolin-6-yl)isoxazole-5-carboxamide]
< 20 | < 20 | CC(C)c1cc(-c2noc(C(=O)NCCF)c2-c2ccc3c(c2)CCN(C)C3)c(O)cc1O [Example 65, 3-(2,4-dihydroxyl-5-isopropylphenyl)-N-(2-fluoroethyl)-4-(2-methyl-1,2,3,4-tetrahydroisoquinolin-6-yl)isoxazole-5-carboxamide]
< 20 | < 20 | CC(C)c1cc(-c2noc(C(=O)NCCCO)c2-c2ccc3c(c2)CCN(C)C3)c(O)cc1O [Example 66, 3-(2,4-dihydroxyl-5-isopropylphenyl)-N-(3-hydroxylpropyl)-4-(2-methyl-1,2,3,4-tetrahydroisoquinolin-6-yl)isoxazole-5-carboxamide]
< 20 | < 20 | CCNC(=O)c1onc(-c2cc(C(C)C)c(O)cc2O)c1-c1ccc2c(c1)CCN(C(C)C)C2 [Example 68, 3-(2,4-dihydroxyl-5-isopropylphenyl)-N-ethyl-4-(2-isopropyl-1,2,3,4-tetrahydroisoquinolin-6-yl)isoxazole-5-carboxamide]
< 20 | < 20 | CCNC(=O)c1onc(-c2cc(C(C)C)c(O)cc2O)c1-c1ccc2c(c1)CCN(CCO)C2 [Example 69]
< 20 | 20 to 100 | CCNC(=O)c1onc(-c2cc(C(C)C)c(O)cc2O)c1-c1ccc2c(c1)CCN(CCOC)C2 [Example 70]
< 20 | < 20 | CCNC(=O)c1onc(-c2cc(C(C)C)c(O)cc2O)c1-c1ccc2c(c1)CCN(CCF)C2 [Example 71]

The next lines start with the molecule.

Structure (SMILES) | IC50 (HSP90α) [nM] | EC50 [1] [nM]
CCCN1CCc2cc(-c3c(C(=O)NCC)noc3-c3cc(C(C)C)c(O)cc3O)ccc2C1 [Example 50, 5-(2,4-dihydroxyl-5-isopropylphenyl)-N-ethyl-4-(2-propyl-1,2,3,4-tetrahydroisoquinolin-6-yl)isoxazole-3-carboxamide] | 20 to 100 | < 20
CCNC(=O)c1noc(-c2cc(C(C)C)c(O)cc2O)c1-c1ccc2c(c1)CCN(C(C)C)C2 [Example 51, 5-(2,4-dihydroxyl-5-isopropylphenyl)-N-ethyl-4-(2-isopropyl-1,2,3,4-tetrahydroisoquinolin-6-yl)isoxazole-3-carboxamide] | 20 to 100 | 20 to 100
CCNC(=O)c1noc(-c2cc(C(C)C)c(O)cc2O)c1-c1ccc2c(c1)CCN(CC(C)C)C2 [Example 52, 5-(2,4-dihydroxyl-5-isopropylphenyl)-N-ethyl-4-(2-isobutyl-1,2,3,4-tetrahydroisoquinolin-6-yl)isoxazole-3-carboxamide] | 20 to 100 | 20 to 100
CCNC(=O)c1noc(-c2cc(C(C)C)c(O)cc2O)c1-c1ccc2c(c1)CCN(CCNC(C)=O)C2 [Example 53, 4-(2-(2-acetylaminoethyl)-1,2,3,4-tetrahydroisoquinolin-6-yl)-5-(2,4-dihydroxyl-5-isopropylphenyl)-N-ethylisoxazole-3-carboxamide] | 20 to 100 | > 100
CCNC(=O)c1noc(-c2cc(C(C)C)c(O)cc2O)c1-c1ccc2c(c1)CCN(CCCNC(C)=O)C2 [Example 54] | 20 to 100 | > 100
CCNC(=O)c1noc(-c2cc(C(C)C)c(O)cc2O)c1-c1ccc2c(c1)CCN(CC(=O)N(C)C)C2 [Example 55, 5-(2,4-dihydroxyl-5-isopropylphenyl)-4-(2-(2-(dimethylamino)-2-oxoethyl)-1,2,3,4-tetrahydroisoquinolin-6-yl)-N-ethylisoxazole-3-carboxamide] | 20 to 100 | > 100
CCNC(=O)c1noc(-c2cc(C(C)C)c(O)cc2O)c1-c1ccc2c(c1)CCN(CCC(=O)N(C)C)C2 [Example 56] | 20 to 100 | > 100
CCNC(=O)c1noc(-c2cc(C(C)C)c(O)cc2O)c1-c1ccc2c(c1)CCN(C(=O)CCN(C)C)C2 [Example 57, 5-(2,4-dihydroxyl-5-isopropylphenyl)-4-(2-(3-(dimethylamino)propionyl)-1,2,3,4-tetrahydroisoquinolin-6-yl)-N-ethylisoxazole-3-carboxamide] | 20 to 100 | > 100
CCNC(=O)c1noc(-c2cc(C(C)C)c(O)cc2O)c1-c1ccc2c(c1)CCN(C(=O)CCN1CCOCC1)C2 [Example 58, 5-(2,4-dihydroxyl-5-isopropylphenyl)-N-ethyl-4-(2-(3-morpholino-4-yl-propionyl)-1,2,3,4-tetrahydroisoquinolin-6-yl)isoxazole-3-carboxamide] | 20 to 100 | > 100
CCNC(=O)c1noc(-c2cc(C(C)C)c(O)cc2O)c1-c1ccc2c(c1)CCN(C(=O)CN(C)C)C2 [Example 59, 5-(2,4-dihydroxyl-5-isopropylphenyl)-4-(2-(2-(dimethylamino)acetyl)-1,2,3,4-tetrahydroisoquinolin-6-yl)-N-ethylisoxazole-3-carboxamide] | 20 to 100 | > 100
CCNC(=O)c1noc(-c2cc(C(C)C)c(O)cc2O)c1-c1ccc2c(c1)CCN(C(=O)CN1CCOCC1)C2 [Example 60, 5-(2,4-dihydroxyl-5-isopropylphenyl)-N-ethyl-4-(2-(2-morpholino-4-yl-acetyl)-1,2,3,4-tetrahydroisoquinolin-6-yl)isoxazole-3-carboxamide] | 20 to 100 | > 100
CC(C)c1cc(-c2noc(C(N)=O)c2-c2ccc3c(c2)CCN(C)C3)c(O)cc1O [Example 61, 3-(2,4-dihydroxyl-5-isopropylphenyl)-4-(2-methyl-1,2,3,4-tetrahydroisoquinolin-6-yl)isoxazol-5-carboxamide] | < 20 | < 20
